Source: patent US12239647B2, “ALS treatment using induced regulatory T (iTREG) cells” (RAPA THERAPEUTICS, LLC, priority 2018, dated 2025)

Tests used:
[1] = system: human CD4+ and CD8+ T cells; experiment: RNA expression of Th1 transcription factors and HIF-1-α after 3-day culture (Luminex Quantigene); type: cell-based; conditions: bead:T cell 1:3, temsirolimus 1 μM, Vitamin D 0.1 to 1.0 nM, relative to control culture
Description: (§1) At the end of the de-differentiation interval, cells were harvested, RNA was isolated, and RNA expression analysis was performed by Luminex Quantigene method. All results shown represent relative RNA expression, with results normalized to a value of 1.0 for the Th1/Tc1 control culture.

[2] = system: human CD4+ and CD8+ T cells; experiment: RNA expression of T cell effector molecules after 3-day de-differentiation culture (Luminex Quantigene); type: cell-based; conditions: 3-day culture, bead:T cell 1:3, temsirolimus 1 μM, Vitamin D 0.1 or 1.0 nM; relative to control Th1/Tc1 culture
Description: as §1

[3] = system: human CD4+ and CD8+ T cells; experiment: RNA expression of de-differentiation transcription factors and IL-7 receptor alpha after 3-day culture (Luminex Quantigene); type: cell-based; conditions: bead:T cell 1:3, temsirolimus 1 μM, relative to control culture
Description: as §1

[4] = system: human CD4+ and CD8+ T cells; experiment: T cell yield at day 13 after de-differentiation and re-stimulation without inhibitors; type: cell-based
Description: After 10 days (13 days of total culture), the T cells were harvested, enumerated, and evaluated by flow cytometry. FIG. 8 illustrates the effect of culture components during the de-differentiation interval on subsequent T cell yield (at day 13 of culture). […] After the 3-day interval, media was exchanged to fresh X-Vivo 20 without inhibitors, high-level co-stimulation was provided (3:1 bead-to-T cell ratio), and the T cell growth cytokines IL-2 (100 IU/ml) and IL-7 (10 ng/ml) were added. At day 13 of culture, viable T cells were enumerated and the overall yield is shown relative to day 0 input number.

[5] = system: human CD4+ and CD8+ T cells; experiment: Western blot for autophagy-related molecule p62 after 3-day de-differentiation culture; type: cell-based; conditions: 3-day culture, bead:T cell 1:3; temsirolimus 1.0 or 0.3 μM, Vitamin D 0.01-1.0 nM, Daclizumab 50 μg/ml as indicated
From the text: The level of autophagy can be determined in-part by the subsequent up-regulation of the autophagy substrate, p62, by western blot analysis.
After the 3-day culture interval, the T cells were harvested, and protein was isolated and subjected to western blot analysis for the autophagy-related gene, p62, and the housekeeping gene, Actin.

[6] = system: human CD4+ and CD8+ T cells; experiment: Cytokine secretion (Luminex) of de-differentiated T cells cultured in polarization-neutral media; type: cell-based; conditions: vitamin D 0.01 nM during de-differentiation relative to 0.1 nM
Description: FIGS. 11A-11D depict the inflammatory Th1/Th17 cytokine analysis of cultured de-differentiated T cells in polarization-neutral media. […] After 3-days, the de-differentiated T cells were co-stimulated (typical bead-to-T cell ratio of 3:1) in media supplemented with the T cell growth cytokines rhu IL-2 (100 IU/ml) and rhu IL-7 (10 ng/ml), which are not potent in terms of inducing T cell polarization. After 10 days in culture (total, day 13 of culture), the T cells were harvested, washed, and re-stimulated with 3/28 beads (3:1 ratio) for 24 hr; the resultant supernatant was harvested and tested for cytokine content by Luminex multi-analyte method. All results shown are expressed as cytokine level in pg per ml per 1×10^6 cells/ml/24 hr.
FIGS. 12A-12D depicts the IL-2 and Th2-type cytokine analysis of cultured de-differentiated T cells in polarization-neutral media. […] After 3-days, the de-differentiated T cells were co-stimulated (typical bead-to-T cell ratio of 3:1) in media supplemented with the T cell growth cytokines rhu IL-2 (100 IU/ml) and rhu IL-7 (10 ng/ml), which are not potent in terms of inducing T cell polarization. […] All results shown are expressed as cytokine level in pg per ml per 1×10^6 cells/ml/24 hr.

[7] = system: human CD4+ and CD8+ T cells; experiment: Western blot for Raptor, Rictor, p70S6K and SGK1 after 3-day de-differentiation culture; type: cell-based; conditions: combination agent de-differentiation: temsirolimus 1 μM, Vitamin D 0.03 to 1.0 nM, Daclizumab 50 μg/ml; relative to control culture
From the text: After the 3-day culture interval, the T cells were harvested, and protein was isolated and subjected to western blot analysis for the mTORC1 complex protein, Raptor; the mTORC2 complex protein, Rictor; the post-mTORC1 protein p70S6K; the post-mTORC2 protein, SGK1; and the housekeeping gene, GAPDH.

[8] = system: human CD4+ and CD8+ T cells; experiment: Western blot for mTORC1-related molecule Raptor after 3-day de-differentiation culture; type: cell-based
From the text: After the 3-day culture interval, the T cells were harvested, and protein was isolated and subjected to western blot analysis for the mTORC1 complex protein, Raptor, and the housekeeping gene, Actin.

[9] = system: human CD4+ and CD8+ T cells; experiment: Flow cytometry of FOXP3, Tbet and GATA3 in extended hybrid Th2/TREG culture with temsirolimus or pemetrexed; type: cell-based; conditions: hybrid polarization condition with pemetrexed 10 nM
From the text: To evaluate these transcription factors in our manufacturing method, T cells were first subjected to the step 1 de-differentiation procedure and then re-differentiated in the hybrid TREG-Th2 culture condition (IL-2, TGF-β, and IL-4). In addition, we compared the effects of pemetrexed with a classical mTOR inhibitor.
The iTREG phenotype is considered to be unstable; as such, we evaluated the stability of T cells re-differentiated using the hybrid TREG-Th2 culture condition at delayed time points, including days 20 and 32 of culture. In addition, to test phenotype stability in a rigorous manner, between day 24 and day 32 of culture, T cells received a high level of co-stimulation (3:1 bead-to-T cell ratio) and were propagated in media without cytokines or pharmacologic agents.
FIGS. 19A-19D illustrate that extended culture of de-differentiated T cells in the hybrid Th2/TREG polarization condition containing pemetrexed results in the generation of CD4^+ T cells expressing FOXP3 and GATA3 transcription factors. […] At days 12, 20, and 32 of culture, T cells were harvested and subjected to surface flow cytometry (CD4 marker) and intra-cellular staining for the following transcription factors, FOXP3, Tbet, and GATA3. The data above show the percent CD4 cells out of the total cultured population (FIG. 19A); the percent of CD4 cells that expressed the TREG transcription factor FOXP3 (FIG. 19B); the percent of CD4 cells that expressed the Th1 transcription factor Tbet (FIG. 19C); and the percent of CD4 cells that expressed the Th2 transcription factor GATA3 (FIG. 19D).
FIGS. 20A-20D illustrate that extended culture of de-differentiated T cells in the hybrid Th2/TREG polarization condition containing pemetrexed results in the generation of CD8^+ T cells expressing FOXP3 and GATA3 transcription factors. […] At days 12, 20, and 32 of culture, T cells were harvested and subjected to surface flow cytometry (CD8 marker) and intra-cellular staining for the following transcription factors, FOXP3, Tbet, and GATA3. […]

[10] = system: human CD4+ and CD8+ T cells; experiment: Expansion of de-differentiated T cells in Th1, TREG or hybrid Th2/TREG polarization with or without pemetrexed; type: cell-based
Description: FIG. 13 depicts favorable expansion of de-differentiated T cells in hybrid Th2/TREG polarization condition relative to Th1 polarization condition. Human CD4^+ and CD8^+ T cells were subjected to a 3-day de-differentiation procedure (“STEP 1”). […] In addition, the T cell culture in the presence of the variable polarization conditions was performed without the novel inhibitory molecule, pemetrexed (“0”) or in the presence of variable concentrations of pemetrexed, as indicated (10 nM [“10”]; 33 nM [“33”]; or 100 nM [“100”]. After a total of 10 days of culture, the n=24 cultures were harvested and live cells were enumerated and graphed above (y-axis indicated number of cells×10^6; input cell number was 1.5×10^6 cells).

[11] = system: human CD4+ and CD8+ T cells; experiment: Cytokine secretion (Luminex) in extended hybrid Th2/TREG culture with temsirolimus or pemetrexed; type: cell-based
From the text: (§2) FIGS. 21A-21D illustrates that extended culture of de-differentiated T cells in the hybrid Th2/TREG polarization condition results in the generation of T cells expressing with a predominant Th2 cytokine phenotype: IL-4, IL-5, and IL-13 secretion. […] At days 12, 20, and 32 of culture, the T cells were harvested, washed, and re-stimulated with 3/28 beads (3:1 ratio) for 24 hr; the resultant supernatant was harvested and tested for cytokine content by Luminex multi-analyte method. All results shown are expressed as cytokine level in pg per ml per 1×10^6 cells/ml/24 hr. The Th2 cytokine IL-10 was also evaluated: all values were less than 20 pg/ml per 1×10^6 cells/ml/24 hr.
as §2, with “22A-22D illustrate” for “21A-21D illustrates”, “IL-2, IFN-γ,” for “IL-4, IL-5,”, “GM-CSF” for “IL-13”, “inflammatory cytokines IL-17 and TNF-α were” for “Th2 cytokine IL-10 was”

[12] = system: peripheral blood mononuclear cells from an ALS patient; experiment: TCR repertoire profiling by RNA sequencing pre- and post-therapy with etanercept; type: in vivo, human
From the text: (§3) FIGS. 23A & 23B depict the use of RNA-based T cell receptor sequencing to detect a widespread up- and down-regulation of T cell TCR specificities after therapy with the TNF-α inhibitor, etanercept. In FIG. 23, RNA was isolated from peripheral blood mononuclear cells from an ALS patient pre- and post-therapy with etanercept therapy. The RNA was subjected to TCR repertoire profiling, as previously described by Rosati E, Dowds C M, Liaskou E, Henriksen E K K, Karlsen T H, Franke A. Overview of methodologies for T-cell receptor repertoire analysis. BMC Biotechnol. 2017; 17(1): 61.
as §3, with “36A-36B” for “23A & 23B”, “depict” for “depict the”, “FIGS. 36A-36B,” for “FIG. 23,”

[13] = Vitamin D 1.0 nM in combination
[14] = hybrid TREG-Th2 condition, temsirolimus 1.0 μM or pemetrexed 10 nM
[15] = ALS patient, pre- versus post-therapy
[16] = several clones, pre- versus post-treatment

What does the source list for C=C1/C(=C\C=C2/CCC[C@]3(C)[C@@H]([C@H](C)CCCC(C)(C)O)CC[C@@H]23)C[C@@H](O)C[C@@H]1O [Vitamin D, Calcitriol]?
HIF-1-α RNA expression [1]: did not down-regulate; STAT1 RNA expression [1]: acts alone to beneficially down-regulate; T-BET RNA expression [1]: acts alone to beneficially down-regulate; Granzyme B RNA expression [2]: reduction; IFN-gamma RNA expression [2]: reduction; IL-10 RNA expression [2]: reduction; IL-7 receptor alpha RNA expression [3, 13]: not Vitamin D alone; KLF4 RNA expression [3, 13]: neither temsirolimus nor Vitamin D alone increased; KLF10 RNA expression [3, 13]: does not act alone to up-regulate; Nanog RNA expression ([3]; Vitamin D 0.1 or 1.0 nM): does not act alone to up-regulate; T cell yield at day 13 of culture ([4]; Vitamin D concentration increased to 1.0 nM (column #6)): very low yield; T cell yield at day 13 of culture ([4]; Vitamin D concentration reduced to 0.01 nM (column #5)): very low yield; preferable concentration for T cell yield ([4]; de-differentiation interval): 0.1 nM; p62 expression (western blot, autophagy marker) [5]: increased p62 expression; IFN-γ secretion [6]: somewhat higher levels; TNF-α secretion [6]: somewhat higher levels; Rictor expression (western blot, FIG. 6) [7]: effective; Raptor expression ([8]; Vitamin D 0.3 nM (culture 7), versus 0.1 nM): higher level of Raptor expression; Raptor inhibition ([8]; Vitamin D level reduced to 0.01 nM): sub-optimal Raptor inhibition

What does the source list for Nc1nc2[nH]cc(CCc3ccc(C(=O)N[C@@H](CCC(=O)O)C(=O)O)cc3)c2c(=O)[nH]1 [pemetrexed]?
percent of CD8 cells that expressed Tbet [9]: lowest levels; percent of CD4 cells that expressed Tbet ([9]; days 12, 20, 32): most consistently reduced TBET values; percent of CD4 cells that expressed GATA3 ([9]; end of culture): highest end-of-culture Th2-associated GATA3 expression; concentration for optimal T cell re-differentiation (numerical perspective) ([10]; TREG-Th2 hybrid polarization (IL-2, TGF-β, IL-4)): 10 nM; T cell number after re-differentiation in TREG-Th2 polarization condition ([10]; most stringent de-differentiation (temsirolimus, vitamin D, anti-IL-2 receptor antibody), pemetrexed 10 nM in step 2, 10 days): sufficient T cells; T cell number after re-differentiation in pure TREG polarizing condition (IL-2 plus TGF-β without IL-4) ([10]; most stringent de-differentiation, in the presence of pemetrexed (cultures #20 and #21)): unsuccessful; T cell yield after re-differentiation in Th1-type polarization ([10]; pemetrexed not added or 10 to 100 nM, input 1.5×10^6 cells): greatly limited ability to re-differentiate; GM-CSF secretion ([11]; hybrid TREG-Th2 condition supplemented with pemetrexed 10 nM): higher degree; IL-5 secretion [11, 14]: fully preserved; IL-13 secretion [11, 14]: fully preserved

For etanercept, which “TCR specificities down-regulated in the post-therapy sample” value [12, 15] is on record?
The value was “approximately 25%”.

And the “TCR specificities up-regulated in the post-therapy sample” value [12, 15]?
The value was “approximately 25%”.

And the “T cell clonal contraction” value [12, 16]?
Its value is “more than 4 log”.

And the “T cell clonal expansion” value [12, 16]?
Its value is “more than 4 log”.

What about the “post-treatment frequencies of contracted T cell clones” value ([12]; several clones, 259 to 598 pre-etanercept) of the same molecule?
The value was 0.01.
